≈ marks a conversion by molar mass, not a printed value. Like-named read-outs stand apart in the source and are kept apart here.
Experiments:
Assay in all cases: In vitro antibacterial activity, agar dilution technique using serial dilution
Assay type in all cases: cell-based
[1] = tested on: Bordetella bronchoseptica; details: Bordetella bronchoseptica strain 16; read-out: Minimum Inhibitory Concentration
Method: (§1) The antibacterial activity of the compounds of the invention is illustrated by the in vitro activity of a preferred compound, 7β-[α-methoxyimino-α-(2-amino-1,3-thiazol-4-yl)acetamido]-3-(1-cyanomethyl-1H-tetrazol-5-ylthiomethyl)-3-cephem-4-carboxylic acid, against a wide spectrum of microorganisms. The activity was determined by the agar dilution technique using serial dilution.

Citrobacter freundii = Citrobacter freundii strain CF17; read-out: Minimum Inhibitory Concentration
Method: as §1

Enterobacter aerogenes = details: Klebsiella aerogenes, read-out: Minimum Inhibitory Concentration
Method: as §1

Enterobacter cloacae = tested on: Enterobacter cloacae
Method: as §1

Escherichia coli = tested on: Escherichia coli
Method: as §1

Haemophilus influenzae = details: read-out: Minimum Inhibitory Concentration
Method: as §1

Klebsiella sp. = Klebsiella sp. strain KAE; read-out: Minimum Inhibitory Concentration
Method: as §1

Proteus inconstans = details: Providencia alcalifaciens; Proteus inconstans strain PR33; read-out: Minimum Inhibitory Concentration
Method: as §1

Proteus morganii = details: Morganella morganii; Proteus morganii strain PR15; read-out: Minimum Inhibitory Concentration
Method: as §1

Proteus rettgeri = details: Providencia rettgeri
Method: as §1

Pseudomonas aeruginosa = tested on: Pseudomonas aeruginosa
Method: as §1

Salmonella sp. = tested on: Salmonella sp.
Method: as §1

Serratia marcescens = tested on: Serratia marcescens
Method: as §1

Shigella sonnei = Shigella sonnei strain N9; read-out: Minimum Inhibitory Concentration
Method: as §1

Staphylococcus aureus = tested on: Staphylococcus aureus
Method: as §1

[2] = tested on: Staphylococcus epidermidis
Method: as §1

Streptococcus Group A = Streptococcus Group A strain C203; read-out: Minimum Inhibitory Concentration
Method: as §1

Streptococcus Group D = details: read-out: Minimum Inhibitory Concentration
Method: as §1

Streptococcus pneumoniae = Streptococcus pneumoniae strain Park; read-out: Minimum Inhibitory Concentration
Method: as §1

CO/N=C(\C(=O)N[C@@H]1C(=O)N2C(C(=O)O)=C(CSc3nnnn3CC#N)CS[C@H]12)c1csc(N)n1 [syn 7β-[α-Methoximino-α-(2-amino-1,3-thiazol-4-yl)-acetamido]-3-(1-cyanomethyl-1H-tetrazol-5-ylthiomethyl)-3-cephem-4-carboxylic acid]
MIC [1]: 64 µg/mL (≈ 119 µM)
MIC (Citrobacter freundii): 8 µg/mL (≈ 14.9 µM)
MIC (Enterobacter aerogenes; Enterobacter aerogenes strain EB17): 0.25 µg/mL (≈ 0.466 µM)
MIC (Enterobacter aerogenes; Enterobacter aerogenes strain X68): 0.06 µg/mL (≈ 0.112 µM)
MIC (Enterobacter aerogenes): 0.125 µg/mL (≈ 0.233 µM)
MIC (Enterobacter cloacae; Enterobacter cloacae strain 265A, read-out: Minimum Inhibitory Concentration): 32 µg/mL (≈ 59.6 µM)
MIC (Enterobacter cloacae; Enterobacter cloacae strain EB5, read-out: Minimum Inhibitory Concentration): 1 µg/mL (≈ 1.86 µM)
MIC (Escherichia coli; Escherichia coli strain EC14, read-out: Minimum Inhibitory Concentration): 0.06 µg/mL (≈ 0.112 µM)
MIC (Escherichia coli; Escherichia coli strain N10, read-out: Minimum Inhibitory Concentration): 0.25 µg/mL (≈ 0.466 µM)
MIC (Escherichia coli; Escherichia coli strain TEM, read-out: Minimum Inhibitory Concentration): 0.06 µg/mL (≈ 0.112 µM)
MIC (Haemophilus influenzae; Haemophilus influenzae strain 76, resistant strain of H. influenzae): 0.015 µg/mL (≈ 0.028 µM)
MIC (Haemophilus influenzae; Haemophilus influenzae strain C.L., sensitive strain of H. influenzae): 0.03 µg/mL (≈ 0.0559 µM)
MIC (Klebsiella sp.): 2 µg/mL (≈ 3.73 µM)
MIC (Proteus inconstans): 0.125 µg/mL (≈ 0.233 µM)
MIC (Proteus morganii): 0.06 µg/mL (≈ 0.112 µM)
MIC (Proteus rettgeri; read-out: Minimum Inhibitory Concentration, Proteus rettgeri strain C24): 0.125 µg/mL (≈ 0.233 µM)
MIC (Proteus rettgeri; Proteus rettgeri strain PR7, read-out: Minimum Inhibitory Concentration): 0.06 µg/mL (≈ 0.112 µM)
MIC (Pseudomonas aeruginosa; Pseudomonas aeruginosa strain Ps18, read-out: Minimum Inhibitory Concentration): 32 µg/mL (≈ 59.6 µM)
MIC (Pseudomonas aeruginosa; Pseudomonas aeruginosa strain X239, read-out: Minimum Inhibitory Concentration): 16 µg/mL (≈ 29.8 µM)
MIC (Pseudomonas aeruginosa; Pseudomonas aeruginosa strain X528, read-out: Minimum Inhibitory Concentration): 16 µg/mL (≈ 29.8 µM)
MIC (Salmonella sp.; Salmonella sp. strain 1335, read-out: Minimum Inhibitory Concentration): 0.5 µg/mL (≈ 0.932 µM)
MIC (Salmonella sp.; Salmonella sp. strain X514, read-out: Minimum Inhibitory Concentration): 0.125 µg/mL (≈ 0.233 µM)
MIC (Serratia marcescens; Serratia marcescens strain 3E3, read-out: Minimum Inhibitory Concentration): 0.25 µg/mL (≈ 0.466 µM)
MIC (Serratia marcescens; Serratia marcescens, read-out: Minimum Inhibitory Concentration, Serratia marcescens strain X93): 0.125 µg/mL (≈ 0.233 µM)
MIC (Shigella sonnei): 0.125 µg/mL (≈ 0.233 µM)
MIC (Staphylococcus aureus; Staphylococcus aureus strain V41, read-out: Minimum Inhibitory Concentration): 4 µg/mL (≈ 7.45 µM)
MIC (Staphylococcus aureus; Staphylococcus aureus strain X1.1, read-out: Minimum Inhibitory Concentration): 1 µg/mL (≈ 1.86 µM)
MIC (Staphylococcus aureus; Staphylococcus aureus strain X400, read-out: Minimum Inhibitory Concentration): 32 µg/mL (≈ 59.6 µM)
MIC (Staphylococcus aureus; read-out: Minimum Inhibitory Concentration): 8 µg/mL (≈ 14.9 µM)
MIC ([2]; Staphylococcus epidermidis strain EPI1, read-out: Minimum Inhibitory Concentration): 4 µg/mL (≈ 7.45 µM)
MIC ([2]; Staphylococcus epidermidis strain EPI2, read-out: Minimum Inhibitory Concentration): 8 µg/mL (≈ 14.9 µM)
MIC (Streptococcus Group A): 0.015 µg/mL (≈ 0.028 µM)
MIC (Streptococcus Group D; Streptococcus Group D strain 9960): 128 µg/mL (≈ 239 µM)
MIC (Streptococcus Group D; Streptococcus Group D strain X66): > 128 µg/mL
MIC (Streptococcus pneumoniae): 0.03 µg/mL (≈ 0.0559 µM)
